Reference: PubChem BioAssay (NCI)
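48-hour exposure; five concentrations; linearly interpolated endpoints. TGI denotes the concentration required for complete inhibition of growth.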

Legend:
Experiment in all cases: NCI tumour cell line growth inhibition, 48 h
ACHN renal = system: ACHN renal
DU-145 prostate = system: DU-145 prostate
EKVX NSCLC = system: EKVX NSCLC
HCC-2998 colon = system: HCC-2998 colon
IGROV1 ovarian = system: IGROV1 ovarian
KM12 colon = system: KM12 colon
LOX IMVI melanoma = system: LOX IMVI melanoma
MDA-MB-231 breast = system: MDA-MB-231 breast
NCI-H23 lung = system: NCI-H23 lung
RPMI-8226 leukemia = system: RPMI-8226 leukemia
RXF 393 renal = system: RXF 393 renal
SK-MEL-28 melanoma = system: SK-MEL-28 melanoma
SK-OV-3 ovarian = system: SK-OV-3 ovarian
SNB-19 CNS = system: SNB-19 CNS
T-47D breast = system: T-47D breast
TK-10 renal = system: TK-10 renal
NCI-H522 lung = system: NCI-H522 lung
OVCAR-3 ovarian = system: OVCAR-3 ovarian
OVCAR-5 ovarian = system: OVCAR-5 ovarian

SMILES	TGI (ACHN renal)	TGI (DU-145 prostate)	TGI (EKVX NSCLC)	TGI (HCC-2998 colon)	TGI (IGROV1 ovarian)	TGI (KM12 colon)	TGI (LOX IMVI melanoma)	TGI (MDA-MB-231 breast)	TGI (NCI-H23 lung)	TGI (RPMI-8226 leukemia)	TGI (RXF 393 renal)	TGI (SK-MEL-28 melanoma)	TGI (SK-OV-3 ovarian)	TGI (SNB-19 CNS)	TGI (T-47D breast)	TGI (TK-10 renal)	TGI (NCI-H522 lung)	TGI (OVCAR-3 ovarian)	TGI (OVCAR-5 ovarian)
CCOC(=O)c1c(NC(=O)OC)c(C#N)c2n1CCCCC2	> 100 µM	43.9 µM	> 100 µM	> 100 µM	> 100 µM	> 100 µM	> 100 µM	91.7 µM	> 100 µM	> 100 µM	> 100 µM	> 100 µM	> 100 µM	> 100 µM	> 100 µM	> 100 µM			
N#Cc1[nH]c(=S)[nH]c1N	> 100 µM	> 100 µM	> 100 µM	> 100 µM	> 100 µM		> 100 µM		> 100 µM		> 100 µM	> 100 µM	> 100 µM	> 100 µM		> 100 µM	> 100 µM	> 100 µM	> 100 µM
Cc1ccc(NC(=O)CSc2nnc(-c3ccc(N=Cc4ccc(Cl)cc4)cc3)o2)cc1	> 100 µM		> 100 µM			> 100 µM	> 100 µM		> 100 µM	> 100 µM	> 100 µM	> 100 µM	> 100 µM	> 100 µM		> 100 µM	> 100 µM		
COc1ccc2c(c1)nc1n2C(c2c(Cl)cccc2Cl)SC1 (stereo not given)	> 100 µM	> 100 µM	> 100 µM	> 86.8 µM	> 100 µM	> 100 µM	> 100 µM	> 100 µM	> 100 µM	> 100 µM	> 70.3 µM	> 100 µM	> 100 µM	> 92.7 µM	> 72.3 µM	> 100 µM		> 93 µM	> 100 µM
COc1ccc(-c2nc(-c3cc4c(ccc5ccccc54)oc3=O)cs2)cc1	> 100 µM	> 100 µM	> 100 µM	> 100 µM	> 100 µM	> 100 µM	> 100 µM	> 100 µM		> 100 µM	> 100 µM	> 100 µM	> 100 µM	> 100 µM	> 100 µM	> 100 µM			> 100 µM
Cc1ccccc1N/C(=C(/C(Cl)=C(Cl)Cl)[N+](=O)[O-])n1nnc2ccccc21	> 100 µM	62.2 µM	40.9 µM	35.8 µM		29.4 µM		58.1 µM	33.3 µM	> 100 µM		30.9 µM	40.7 µM	46.8 µM	58 µM			30.8 µM	33.6 µM
CCC1CCc2c(c(=O)oc3c2cc(OC)c2cccc(OC)c23)C1 (stereo not given)	> 100 µM		> 100 µM	> 100 µM	> 100 µM	> 100 µM			> 100 µM	> 100 µM	89.9 µM	> 100 µM	> 100 µM	> 100 µM		> 100 µM	> 100 µM		> 100 µM
COC(=O)[C@]12CCC(C)(C)C[C@H]1[C@H]1C(=O)C=C3[C@@]4(C)C=C(C#N)C(=O)C(C)(C)[C@@H]4CC[C@@]3(C)[C@]1(C)CC2	0.0639 µM	0.295 µM	0.208 µM	0.0305 µM	1.15 µM	0.159 µM		0.106 µM	0.0392 µM	0.126 µM	> 100 µM		1.1 µM	0.243 µM	0.159 µM	0.152 µM	> 100 µM	0.0615 µM	0.194 µM
COc1ccc2c(c1)C(=O)OCCC2	> 100 µM	> 100 µM	> 100 µM	> 100 µM	> 100 µM	> 100 µM		> 100 µM	> 100 µM	> 100 µM	> 100 µM	> 100 µM	> 100 µM	> 100 µM	> 100 µM	> 100 µM	> 100 µM	> 100 µM	> 100 µM
S=c1[nH]c(=S)c2nnn(-c3ccccc3)c2[nH]1	> 100 µM		> 100 µM	> 100 µM	> 100 µM	> 100 µM	> 100 µM		> 100 µM	> 100 µM	> 100 µM	> 100 µM	> 100 µM	> 100 µM		> 100 µM	> 100 µM	> 100 µM	> 100 µM
COc1ccc(-n2cnn3c(=O)c4cn[nH]c4nc23)cc1	> 10 µM	> 10 µM	> 10 µM	> 10 µM		> 10 µM	> 10 µM		> 10 µM				> 10 µM	> 10 µM		> 10 µM	> 10 µM	> 10 µM	> 10 µM
Nc1nc(NCC2(CO)CC2)cc(=O)[nH]1	> 100 µM	> 100 µM	> 100 µM	> 100 µM	> 100 µM	> 100 µM	> 100 µM	> 100 µM	> 100 µM	> 100 µM	> 100 µM	> 100 µM	> 100 µM	> 100 µM	> 100 µM		> 100 µM	> 100 µM	> 100 µM
CC1=CCC(C)=Nc2nc3ccccc3n21	> 100 µM	> 100 µM	> 100 µM		> 100 µM	> 100 µM	> 100 µM	> 100 µM	> 100 µM	> 100 µM	> 100 µM	> 100 µM	> 100 µM	> 100 µM	> 100 µM	> 100 µM	> 100 µM	> 100 µM	> 100 µM
